Read-outs that look alike come from different tables or passages of the source.
Columns and labels:
ID8 cells [1] = tested on: ID8 cells
Experimental: (§1) Sequential Delivery of Small Molecules and Chemotherapy: ID8 cells were exposed to AMD3100 in a 6 well plate (2.5×10^5 cells/well) for 72 hr. Cells were then washed and counted. Cell viability was checked by propidium iodide. For each condition, 500 cells per well of viable ID8 cells were then seeded into a 96 well black assay plate. ID8 cells were then incubated in DMEM containing a carrier, AMD3100 10 μM, TAXOL 0.005 μM, or both for another 72 hr. For TOV-112D cells, initial 72 hr incubation was with AMD3100 5 μM, followed by 96 hr incubation in media containing AMD3100 5 μM, TAXOL 1 nM, or both. At the conclusion of the experiment, plates were washed and dsDNA was measured via CyQuant assay.

TOV-112D cells = tested on: TOV-112D cells
Experimental: as §1

40L = assay: Survival in intraperitoneal malignant mesothelioma model, 40L; assay type: in vivo; details: 40L model, C57BL/6 mice; IP once a week for four weeks; AMD3100 1 mg/kg, VIC-008 20 μg per mouse
Experimental: Intraperitoneal malignant mesothelioma (MM) models were established in immunocompetent C57BL/6 mice using syngeneic 40L and AE17 cell lines. Here, we tested the effect of AMD3100 and VIC-008, alone or in combination, on mouse survival in the mesothelioma-bearing mice. […], alone, was administered at 20 μg per mouse intraperitoneally (IP) once a week for four successive weeks. AMD3100 was administered at 1 mg/kg of mouse body weight via IP injection once a week for four successive weeks.

[2] = tested on: ID8 murine ovarian cancer cells; assay: cells; details: AMD3100 10 μM alone, 72 hours
Experimental: Drug Titrations: TAXOL was titered to determine the concentrations used in combination with AMD3100. Cells were cultured in 96-well black assay plates with optically clear bottoms (500 and 2500 cells per well were tested), including a standard curve plate. ID8 cells were then exposed to increasing concentrations of paclitaxel (1, 0.5, 0.15, 0.05, 0.015, and 0.005 μM), and TOV cells were exposed to 15, 5, and 1 nM Taxol for 48 or 96 hr. Proliferation was measured by measuring the amount of dsDNA using CyQuant reagent and read on a Perkin Elmer Envision 2103. AMD3100 (50, 25, 10, 5, 2.5, and 1 μM) was titered in the same manner. Each condition was done in triplicate. Drugs were not replenished during any of the experiments. Data was analyzed in Prism 7.
Simultaneous Delivery of Small Molecules and Chemotherapy: To determine the effect of AMD3100 alone or in combination with TAXOL, cell proliferation was measured by seeding 2500 TOV cells and 500 ID8 cell per well in a clear bottom 96-well black assay plates. AMD3100 (final concentrations: 10 μM for ID8 and 2.5 μM for TOV) and Paclitaxel (final concentrations: 15 and 5 nM for ID8 cells and 5 and 1 nM for TOV cells) were mixed with DMEM. 100 μL of the mixture was added to the cells. Each condition was done in triplicate. Plates were incubated at 37° C. with 5% CO2 for 72 hr (ID8) and 96 hr (TOV-112D). Standard curve plates were washed the same day the experiment was done. Plates were stored at −80° C. after washing and proliferation rate was measured then by CyQuant assay.

ID8 cells [3] = assay: Soft-agar colony formation, ID8; assay type: cell-based, murine
Experimental: ID8 and TOV Colony Formation in The Presence of Small Molecules and/or Chemotherapy: Bottom Layer Hard Agar: 2×DMEM and 0.8% agar stock was prepared and adjusted to 42° C. in a water bath for 30 min. The agar and 2×DMEM were mixed (1:2). 500 μL of the mixture was then added to each well of a 24 well plate, and the plate was rocked to distribute evenly and allowed to solidify at room temperature in a tissue culture hood. Upper Layer Soft Agar: 0.6% agar stock was prepared adjusted to 42° C. in a water bath for 30 min. During this time, ID8 cells were trypsinized, and 40,000 cells per mL suspension in 1×DMEM was made. Cell suspensions were then mixed with soft agar stock (1:2) and 500 μL of the mixture was then added to each well. Each condition was in triplicate.
Drug-DMEM stocks were made to achieve the proper concentrations in 1.1 mL, the total volume of each well: AMD3100 (10 μM and 1 μM for ID8 cells, 5 μM and 2.5 μM for TOV cells) and TAXOL (0.015 μM and 0.005 μM). 100 μL of each drug was added to the relative wells in triplicate. Plates were then incubated in a humidified incubator with […] for 20-30 days. At the end of the experiment, each well was stained with 0.005% crystal violet in 15% ethanol (140 μL per well) and plates were incubated again for several hours then photos were taken using a microscope. ID8 Colonies equal or bigger […] and TOV colonies equal or bigger than […] were counted using Image J software.

## Plerixafor octahydrochioride [AMD3100]
ID8 cells [1]; ID8, no pre-treatment, re-plated in AMD3100 10 μM media 72 hr, not significant
  proliferated more than untreated cells: 22%
ID8 cells [1]; ID8, pre-treated with AMD3100 72 hr, reseeded in AMD3100 10 μM 72 hr
  proliferation reduced by, vs untreated control cells: 48%
ID8 cells [1]; ID8, treated with AMD3100 and then incubated without drug
  increased growth: 22%
ID8 cells [1]; ID8, vs untreated control cells then incubated with TAXOL
  sensitization of cells to subsequent TAXOL by AMD3100 pre-treatment: did not significantly sensitize
TOV-112D cells
  sensitization of cells by AMD3100 pre-treatment: did not significantly sensitize
TOV-112D cells; AMD3100 5 μM 72 hr, then re-plated in AMD3100 96 hrs
  proliferation reduced by: 79.5%
TOV-112D cells; AMD3100 5 μM 72 hr, then re-plated in control media 96 hrs
  proliferation reduced by: 49%
TOV-112D cells; control media, then AMD3100 5 μM 96 hr
  proliferation reduced by: 51%
TOV-112D cells; listed as AMD-3100
  sensitization of cells by AMD3100 pre-treatment: significantly sensitized
40L
  animal survival compared to saline control: modest benefit to survival
[2]
  ID8 cell growth inhibition: did not significantly inhibit
ID8 cells [3]; ID8, AMD3100 1 M (so in the source)
  decreased colony formation by: 16%
ID8 cells [3]; ID8, AMD3100 10 M (so in the source)
  decreased colony formation by: 44%

Reference: patent US20190133998A1, “TREATMENT OF TUMORS WITH INHIBITORS OF CXCL12 SIGNALING AND SUBT[…] OF CHEMOTHERAPEUTIC AGENTS” (THE GENERAL HOSPITAL CORPORATION, priority 2016, published 2019)
